{
  "source": "paper PMC2033742",
  "about": "“Comparison of ability of protein kinase C inhibitors to arrest cell growth and to alter cellular protein kinase C localisation” (British Journal of Cancer, 1995)",
  "key": {"[1]": {"tested_on": "A549 lung carcinoma cells", "experiment": "Cell growth inhibition by cell counting (Coulter Counter), A549", "type": "cell-based, human", "procedure": "(§1) Compounds with varying degrees of potency and specificity for PKC were investigated in A549 and MCF-7 carcinoma cells. […] To substantiate the role of PKC in the growth inhibition caused by these agents, cells were depleted of PKC by incubation with bryostatin 1 (1 jsM). […] The subcellular distribution of PKC-z-, -e and -< was measured by Western blot analysis. […] Cell growth Human A549 lung and MCF-7 breast carcinoma cells were obtained from the European Collection of Animal Cell Cul- tures (Salisbury, UK). Cells (passage number 10-30) were cultured in an atmosphere of 5% carbon dioxide, the former in Ham's F-12 medium with penicillin/streptomycin, the lat- ter in minimum essential medium (Eagle's modification) with additional pyruvate (1 mM) and non-essential amino acids. Both media were supplemented with 10% FCS (Imperial Laboratories Europe, Andover, UK, and Gibco) and gluta- mine (2 mM). Cells were subcultured routinely twice weekly to maintain logarithmic growth. For cell proliferation studies cells were seeded at a density of 1.3 x 104 cm-2 and incubat- ed with 3 ml of medium including agents, which was replen- ished at intervals of 48 h (A549) or 72 h (MCF-7). Following incubation for 4 days (A549) or 6 days (MCF-7) with drugs, cell number was assessed using a Coulter Counter Model ZM. […] Bryostatin was removed by extensive washing of the cells followed by a 2 h recovery period. […] In some experiments cells were incubated with inhibitor for 48 rather than 24 h, in this case bryostation was not removed and left in the incubate. […] Radioactivity was counted using a Packard 1500 Tricarb scintillation counter. […] The amount of protein loaded per lane was 20 tg for detection of cPKC-oc and 30 lg for nPKC-e. Detection was by enhanced chemi- luminescence generated by oxidation of luminol in the presence of hydrogen peroxide using an ECL kit from Amer- sham International."}, "A549 cells": {"tested_on": "A549 cells", "experiment": "[3H]Tdr incorporation into control (naive) A549 cells", "type": "cell-based, human", "procedure": "as §1"}, "[2]": {"tested_on": "A549 lung carcinoma cells", "design": "method as in Dale and Gescher, 1989; Stanwell et al., 1994", "conditions": "24 h with bryostatin 1 (1 micromolar); ref Dale and Gescher, 1989; Stanwell et al., 1994; cited from earlier work"}, "cPKC-a and nPKC-e": {"tested_on": "cPKC-a and nPKC-e", "experiment": "PKC down-regulation in A549 cells by bryostatin 1, Western blot", "type": "cell-based, human", "conditions": "bryostatin 1 at 1 (micromolar) for 24 h", "procedure": "To substantiate the role of PKC in the growth inhibition caused by these agents, cells were depleted of PKC by incubation with bryostatin 1 (1 jsM). […] The subcellular distribution of PKC-z-, -e and -< was measured by Western blot analysis. […] Bryostatin was removed by extensive washing of the cells followed by a 2 h recovery period. […] In some experiments cells were incubated with inhibitor for 48 rather than 24 h, in this case bryostation was not removed and left in the incubate. […] The amount of protein loaded per lane was 20 tg for detection of cPKC-oc and 30 lg for nPKC-e. Detection was by enhanced chemi- luminescence generated by oxidation of luminol in the presence of hydrogen peroxide using an ECL kit from Amer- sham International."}, "[3]": {"conditions": "phase I trials, ref Phillip et al., 1993, Prendiville et al.; cited from earlier work"}, "cPKC-a": {"target": "T1, cPKC-a (Homo sapiens, UniProt P17252)", "T1 construct": "these three PKC isoenzymes are abundantly ex- pressed in A549 cells; endogenous in cells; host or cells: A549 human lung carcinoma cells", "experiment": "Subcellular localisation of cPKC-alpha in A549 cells, Western blot of cellular fractions", "type": "cell-based", "procedure": "as §1"}, "PKC-depleted A549 cells": {"tested_on": "PKC-depleted A549 cells", "experiment": "[3H]Tdr incorporation into PKC-depleted (bryostatin 1 pretreated) A549 cells", "type": "cell-based, human", "procedure": "as §1"}, "nPKC-e": {"target": "T2, nPKC-e (Homo sapiens, UniProt Q02156)", "T2 sequence (Q02156 1-737)": "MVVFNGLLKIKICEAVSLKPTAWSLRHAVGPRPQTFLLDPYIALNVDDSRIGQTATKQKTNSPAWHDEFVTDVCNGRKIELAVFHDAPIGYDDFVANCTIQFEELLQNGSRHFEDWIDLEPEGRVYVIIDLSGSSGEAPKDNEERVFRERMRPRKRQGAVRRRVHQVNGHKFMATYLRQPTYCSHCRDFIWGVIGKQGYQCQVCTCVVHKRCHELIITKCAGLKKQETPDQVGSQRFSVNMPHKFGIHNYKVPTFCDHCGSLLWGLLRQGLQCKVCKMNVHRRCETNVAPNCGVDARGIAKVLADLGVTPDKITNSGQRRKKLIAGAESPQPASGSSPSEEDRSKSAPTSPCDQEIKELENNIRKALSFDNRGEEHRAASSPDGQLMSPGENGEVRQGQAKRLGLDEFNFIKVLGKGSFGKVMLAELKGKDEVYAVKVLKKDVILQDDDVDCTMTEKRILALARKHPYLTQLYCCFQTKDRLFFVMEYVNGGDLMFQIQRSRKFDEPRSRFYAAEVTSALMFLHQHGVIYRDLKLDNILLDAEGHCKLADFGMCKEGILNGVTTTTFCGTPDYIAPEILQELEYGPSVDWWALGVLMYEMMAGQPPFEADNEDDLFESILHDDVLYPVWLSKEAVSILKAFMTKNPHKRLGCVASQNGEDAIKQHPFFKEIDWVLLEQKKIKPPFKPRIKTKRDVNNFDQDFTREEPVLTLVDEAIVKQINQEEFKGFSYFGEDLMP", "experiment": "Subcellular localisation of nPKC-epsilon in A549 cells, Western blot of cytosolic, particulate and nuclear fractions", "procedure": "as §1"}, "[4]": {"conditions": "weaker enzyme inhibitors, read-out: concentrations which arrested growth"}, "[5]": {"conditions": "Homo sapiens, A549, read-out: IC50 for inhibition of [3H]Tdr incorporation"}, "[6]": {"conditions": "Homo sapiens, A549, weaker enzyme inhibitors, read-out: concentrations which arrested growth"}, "[7]": {"conditions": "A549 cells, 30 min, with TPA 25 nM, staurosporine effect not significant (P = 0.08)"}, "[8]": {"conditions": "A549 and MCF-7 cells, read-out: IC50 values for growth arrest (stronger growth inhibitors)"}, "[9]": {"conditions": "PKC-depleted A549 cells (bryostatin 1 for 24 h, washed), 24 h with inhibitor, read-out: IC50 for inhibition of [3H]Tdr incorporation"}, "[10]": {"conditions": "control A549 cells, 24 h with inhibitor, read-out: IC50 for inhibition of [3H]Tdr incorporation"}},
  "note": "Where two headings read alike, the source gives them in different places.",
  "data": [
    {"smiles": "CCCCCCCCCCCCC(=O)N1CCCCC1CNC(=O)C(N)CCCCN", "note": "(stereo not drawn) [NPC 15-437, 2,6-Diamino-N-([l-(1-oxotridecyl)-2-piperidinyl]methyl)hexanamide]", "values": [
      {"measurement": "IC50", "setting": "[1]; [4]", "result": "> 1", "unit": "µM"}
    ]},
    {"smiles": "CN[C@@H]1C[C@H]2O[C@@](C)([C@@H]1OC)n1c3ccccc3c3c4c(c5c6ccccc6n2c5c31)C(=O)NC4", "note": "[Staurosporine, staurosporine]", "values": [
      {"measurement": "IC50", "setting": "A549 cells; [5]", "result": 0.0012, "unit": "µM"}
    ]},
    {"smiles": "CCC/C=C/C=C/C(=O)O[C@H]1/C(=C/C(=O)OC)C[C@H]2C[C@H]([C@@H](C)O)OC(=O)C[C@H](O)C[C@@H]3C[C@H](OC(C)=O)C(C)(C)[C@](O)(C[C@@H]4C/C(=C/C(=O)OC)C[C@H](/C=C/C(C)(C)[C@]1(O)O2)O4)O3", "note": "[bryostatin 1]", "values": [
      {"measurement": "growth inhibition under PKC depletion conditions", "setting": "[2]", "result": "negligible"},
      {"measurement": "down-regulation of cPKC-a and nPKC-e", "setting": "cPKC-a and nPKC-e", "result": "completely down-regulated"},
      {"measurement": "dose-limiting toxicity", "setting": "[3]", "result": "myalgia"}
    ]},
    {"smiles": "COc1c(C[C@@H](C)OC(=O)Oc2ccc(O)cc2)c2c3c(C[C@@H](C)OC(=O)c4ccccc4)c(OC)c(=O)c4c(O)cc(OC)c(c5c(OC)cc(O)c(c1=O)c52)c43", "note": "[Calphostin C, calphostin C]", "values": [
      {"measurement": "IC50", "setting": "[1]; Homo sapiens, A549 and MCF-7 cells, read-out: IC50 values for growth arrest (stronger growth inhibitors)", "result": "< 1", "unit": "µM"},
      {"measurement": "effect on TPA-induced cPKC-a redistribution", "setting": "cPKC-a", "result": "failed to affect TPA-induced cPKC-a redistribution"}
    ]},
    {"smiles": "CCCCCCCCCCCCCCCCOP(=O)([O-])OCC[N+](C)(C)C", "note": "[Miltefosine, Hexadecylphosphocholine]", "values": [
      {"measurement": "IC50", "setting": "[1]; [6]", "result": "> 1", "unit": "µM"},
      {"measurement": "effect on TPA-induced cPKC-a redistribution", "setting": "cPKC-a; [7]", "result": "failed to affect TPA-induced cPKC-a redistribution"}
    ]},
    {"smiles": "CO[C@@H]1[C@H](N(C)C(=O)c2ccccc2)C[C@H]2O[C@]1(C)n1c3ccccc3c3c4c(c5c6ccccc6n2c5c31)C(=O)NC4", "note": "[CGP 41251]", "values": [
      {"measurement": "effect on TPA-induced cPKC-a redistribution", "setting": "cPKC-a; [7]", "result": "failed to affect TPA-induced cPKC-a redistribution"}
    ]},
    {"smiles": "CCCCCCCCCCCCC/C=C/[C@@H](O)[C@H](CO)[N+](C)(C)C", "note": "[TMS, trimethylsphingosine]", "values": [
      {"measurement": "IC50", "setting": "[1]; [4]", "result": "> 1", "unit": "µM"}
    ]},
    {"smiles": "Cn1cc(C2=C(c3cn(CCCSC(=N)N)c4ccccc34)C(=O)NC2=O)c2ccccc21", "note": "[RO 31-8220]", "values": [
      {"measurement": "IC50", "setting": "[1]; [8]", "result": "< 1", "unit": "µM"},
      {"measurement": "effect on TPA-induced cPKC-a redistribution", "setting": "cPKC-a", "result": "failed to affect TPA-induced cPKC-a redistribution"},
      {"measurement": "IC50", "setting": "PKC-depleted A549 cells; [9]", "result": 1.6, "unit": "µM"},
      {"measurement": "concentration which changed nPKC-e localisation significantly", "setting": "nPKC-e", "result": 0.1, "unit": "pM"},
      {"measurement": "IC50", "setting": "A549 cells; [10]", "result": 1.9, "unit": "µM"}
    ]},
    {"smiles": "CC1CNCCN1S(=O)(=O)c1cccc2cnccc12", "note": "(stereo not drawn) [H-7, 1-(5-Isoquinolinesulfonyl)-2-methylpiperazine]", "values": [
      {"measurement": "IC50", "setting": "[1]; [6]", "result": "> 1", "unit": "µM"},
      {"measurement": "effect on TPA-induced cPKC-a redistribution", "setting": "cPKC-a", "result": "failed to affect TPA-induced cPKC-a redistribution"},
      {"measurement": "IC50", "setting": "PKC-depleted A549 cells; [5]", "result": 20, "unit": "µM"},
      {"measurement": "IC50", "setting": "A549 cells; [5]", "result": 32, "unit": "µM"}
    ]},
    {"smiles": "CN[C@@H]1C[C@H]2O[C@@](C)([C@@H]1OC)n1c3ccccc3c3c4c(c5c6ccccc6n2c5c31)C(=O)N[C@H]4O", "note": "[UCN-01]", "values": [
      {"measurement": "IC50", "setting": "[1]; [8]", "result": "< 1", "unit": "µM"},
      {"measurement": "effect on TPA-induced cPKC-a redistribution", "setting": "cPKC-a; [7]", "result": "behaved similarly"},
      {"measurement": "blots in which TPA-induced cPKC-a translocation was augmented", "setting": "cPKC-a; A549 cells, UCN-01 at 1 (micromolar) with TPA 25 nM", "result": "three out of six"},
      {"measurement": "IC50", "setting": "PKC-depleted A549 cells; [9]", "result": 0.047, "unit": "µM"},
      {"measurement": "concentration required for translocation relative to IC50 for growth of A549 cells", "setting": "nPKC-e; A549", "result": "2- to 3 fold"},
      {"measurement": "concentration which changed nPKC-e localisation significantly", "setting": "nPKC-e; A549 cells, 30 min, P<0.05 vs control", "result": 0.1, "unit": "pM"},
      {"measurement": "IC50", "setting": "A549 cells; [10]", "result": 0.068, "unit": "µM"}
    ]},
    {"smiles": "CN(C)CCCn1cc(C2=C(c3c[nH]c4ccccc34)C(=O)NC2=O)c2ccccc21", "note": "[GF 109203X]", "values": [
      {"measurement": "IC50", "setting": "[1]; A549 and MCF-7 cells, read-out: IC50 for interference with cell growth", "result": "> 7", "unit": "µM"},
      {"measurement": "effect on TPA-induced cPKC-a redistribution", "setting": "cPKC-a", "result": "failed to affect TPA-induced cPKC-a redistribution"},
      {"measurement": "concentration which changed nPKC-e localisation significantly", "setting": "nPKC-e", "result": 0.1, "unit": "pM"}
    ]}
  ]
}
